From paper PMC9603901, “Therapeutic Potential of Antimicrobial Peptide PN5 against Multidrug-Resistant E. coli and Anti-Inflammatory Activity in a Septic Mouse Model” (Microbiology Spectrum, 2022)
Where no end group is shown, it is not given here.

What was measured:
[1] = test system: E. coli ATCC 25922 biofilm; conditions: 5 × 10^5 CFU mL^−1, 0.2% glucose, 24 h, 37°C, crystal violet A595, three independent experiments
Description: Crystal violet staining was performed to determine the degree of biofilm formation by the E. coli 25922, S. aureus 25923, and ASEC strains. E. coli 25922 and S. aureus 25923 were cultured overnight in LB and TSB media with aeration at 180 rpm, respectively. Bacterial suspensions with 0.2% glucose (5 × 10^5 CFU mL^−1) were added to a 96-well plate (30096, surface treatment; SPL Life Sciences) and incubated for 24 h at 37°C. The supernatant was removed and fixed with 100% methanol. Next, 100 μL of crystal violet was added to the plate and incubated to dye the cells for 1 h, followed by rinsing the cells three times with distilled water (dH2O). After the crystal violet was dissolved with 95% ethanol, the mass of biofilm formation at 595 nm was measured using a Versa Max microplate reader (Molecular Devices). The inhibitory effect of PN5 against biofilm formed by E. coli 25922, S. aureus 25923, and three MDR E. coli strains (ASEC 2, 16, and 18) were determined. These cells were cultured overnight in LB and TSB media. Bacterial suspensions (5 × 10^5 CFU mL^−1) containing 0.2% glucose were added to 96-well plates and PN5 was serially diluted to a final concentration of 32 μM. The minimal biofilm inhibitory concentration (MBIC) was determined in three independent experiments. The percentage of biofilm formation was measured using the equation (A595 of treated biofilm/A595 of untreated biofilm) × 100. Similarly, the MDR ASEC 1 to 19 strains were cultured overnight in LB medium and seeded into 96-well plates with medium containing 0.2% glucose at 5 × 10^5 CFU mL^−1 of the bacterial suspension. Biofilm staining was performed as described above. SYTO 9 (6 μM) fluorescence in LIVE/DEAD BacLight was used to visualize the degree of biofilm formation. […] After 24 h, the culture supernatant of the peptide and bacteria was discarded, and the pellet was fixed with 100% methanol. A fluorescence mixture of SYTO 9 and propidium iodide was then added to each well, and the fluorescence was evaluated with an EVOS FL color imaging system (Thermo Fisher Scientific) with a 4× objective ([22]).

A. baumannii KCTC 2508 = type: cell-based, Acinetobacter baumannii; conditions: microdilution, NB, 18 to 24 h, 37°C, three independent experiments
Description: Bacterial cells were cultured at 37°C in the appropriate culture media with shaking (180 rpm). Luria-Bertani broth (LB) (244620; BD Difco) was used for E. coli ATCC 25922, ASEC strains, and B. subtilis KCTC 2217. Nutrient broth (NB) (234000; BD Difco) was used for P. aeruginosa ATCC 27853, S. Typhimurium KCTC 1926, and A. baumannii KCTC 2508. Tryptic soy broth (TSB) (211825; BD Difco) was used for S. aureus ATCC 25923. Finally, brain heart infusion (BHI) (237500; BD Difco) was used for L. monocytogenes KCTC 3710. The antimicrobial activity of each peptide was determined using microdilution assays. To this end, 2-fold serial dilution series of each peptide (from 1 to 64 μM) were added to duplicate media with 10 mM sodium phosphate buffer (pH 7.4). Fifty microliters of the peptide and antibiotic solution was added to each well of a 96-well plate (32096, surface nontreatment; SPL Life Sciences). Then, 50 μL of 2 × 10^5 CFU mL^−1 of bacteria was added to each well, and the samples were incubated for 18 to 24 h without shaking at 37°C.

RAW 264.7 cells = test: MTT cell viability; type: cell-based, mouse; conditions: up to 200 μM, 24 h
Description: (§1) RAW 264.7 cells (mouse macrophage cells) were maintained in high-glucose Dulbecco’s modified Eagle medium (DMEM) (Welgene, Daegu, South Korea) supplemented with 10% fetal bovine serum (FBS) (Gibco) and 1% penicillin at 37°C in humidified 5% CO2. Cells (2 × 10^5 cells well^−1) were seeded into DMEM supplemented with 10% FBS medium in a 96-well plate. The MTT assay was performed after culturing the cells in 96-well plates at a density of 2 × 10^5 cells well^−1, followed by treatment with serially diluted PN5, magainin 2, and melittin. After 24 h, the medium was discarded, and 100 μL DMEM and 10% FBS medium containing 0.5 mg mL^−1 MTT were added to each well. After 4 h of incubation, the medium was discarded and dimethyl sulfoxide was added to each well to solubilize the formazan. The optical densities at 570 and 650 nm (OD570 and OD650, respectively) of the treated cells were compared to those of control cells. The hemolytic activity of the peptides was evaluated as the release of hemoglobin from an 8% mRBC suspension. A 100-μL aliquot of the 8% mRBC suspension was added to the wells of a 96-well plate, and 100 μL of peptide solution in phosphate-buffered saline (PBS) was added at a final peptide concentration of 200 μM. After incubation for 1 h at 37°C with shaking (50 rpm), the suspensions were centrifuged at 1,000 × g for 5 min. The absorbance of the supernatant was measured at 414 nm using a Versa Max microplate reader (Molecular Devices). As a control, no hemolysis and complete hemolysis were determined in PBS and 0.1% Triton X-100, respectively. The degree of hemolysis was calculated using the following equation as described in reference: %hemolysis=[(A414withpeptide-A414withPBS)/(A414with0.1%TritonX-100-A414 with PBS)] × 100

mouse red blood cells = test: Hemolytic activity; type: cell-based; conditions: 200 μM; 8% mouse red blood cells, 1 h, 37°C
Description: as §1

Substance: FKFLARTGKFL-NH2 [PN5]
- MBIC50 (minimum inhibitory concentration resulting in at least 50% inhibition of biofilm formation) [1]: 16 (21.22) μM
- MIC (A. baumannii KCTC 2508): 4 µM
- toxicity, MTT assay (RAW 264.7 cells): did not show toxicity
- hemolysis (mouse red blood cells): did not induce hemolysis
